Source: US20080293785A1, “SUBSTITUTED BENZOTHIAZOLE KINASE INHIBITORS” (priority 2006, published 2008)

Legend:
Format in all cases: biochemical
[1] = target: T1, CDK1:Cyclin-B (Homo sapiens, UniProt P06493); assay: CDK1 Screening Assay; settings: 10 μM ATP, biotinylated histone-H1 peptide substrate, 33P-γ-ATP FlashPlate; read-out: Kinase IC50 CDK1
T1 construct: purchased New England Biolabs, Beverly, Mass; 6020; host or cells: insect cells
Procedure: (§1) A kinase reaction mixture was prepared containing 50 mM Tris.HCl pH=8, 10 mM MgCl2, 0.1 mM Na3PO4, 1 mM DTT, 10 μM ATP, 0.025 μM biotinylated histone-H1 peptide substrate and 0.2 μCuries per well ^33P-γ-ATP (2000-3000 Ci/mmol). 70 μL of the kinase reaction mixture was dispensed into the well of a streptavidin coated FlashPlate™ (Cat. # SMP103, NEN, Boston, Mass.). Then 1 μL of test compound stock in 100% DMSO was added to the wells resulting in a final concentration of 1% DMSO in the reaction well with a 100 μL final reaction well volume.
(§2) The CDK1:Cyclin-B protein was diluted in 50 mM Tris.HCl pH=8.0, 0.1% BSA at a concentration of 1 ng per μL and 30 μL (30 ng enzyme per test well) was added to each well to initiate the reaction. The reaction was incubated for one hour at 30° C. At the end of the one hour incubation, the reaction was terminated by aspirating the mixture from the plate and washing the wells twice with PBS containing 100 mM EDTA. The histone-H1 biotinylated peptide substrate became immobilized on the Flashplate™ and the incorporation of ^33P-γ-ATP was measured by reading the plate on a scintillation counter. Inhibition of the enzymatic activity of CDK1 was measured by observing a reduced amount of ^33P-γ-ATP incorporated into the immobilized peptide.
The CDK1 kinase used was isolated from insect cells expressing both the human CDK1 catalytic subunit and its positive regulatory subunit cyclin B (New England Biolabs, Beverly, Mass., Cat. # 6020).
(§3) An IC50 listed as >0.1, >1, >10 or >100 means no observed 50% inhibition at the indicated test concentration. […] ND means the compound was not tested in the assay specified.

[2] = target: VEGF-R2 kinase domain (Rattus norvegicus, UniProt O08775); assay: VEGF-R2 Screening Assay; settings: 10 μM ATP, biotinylated PLC1 peptide substrate, 33P-γ-ATP FlashPlate; read-out: Kinase IC50 VEGFR
Chain of VEGF-R2 kinase domain (O08775 786-1343): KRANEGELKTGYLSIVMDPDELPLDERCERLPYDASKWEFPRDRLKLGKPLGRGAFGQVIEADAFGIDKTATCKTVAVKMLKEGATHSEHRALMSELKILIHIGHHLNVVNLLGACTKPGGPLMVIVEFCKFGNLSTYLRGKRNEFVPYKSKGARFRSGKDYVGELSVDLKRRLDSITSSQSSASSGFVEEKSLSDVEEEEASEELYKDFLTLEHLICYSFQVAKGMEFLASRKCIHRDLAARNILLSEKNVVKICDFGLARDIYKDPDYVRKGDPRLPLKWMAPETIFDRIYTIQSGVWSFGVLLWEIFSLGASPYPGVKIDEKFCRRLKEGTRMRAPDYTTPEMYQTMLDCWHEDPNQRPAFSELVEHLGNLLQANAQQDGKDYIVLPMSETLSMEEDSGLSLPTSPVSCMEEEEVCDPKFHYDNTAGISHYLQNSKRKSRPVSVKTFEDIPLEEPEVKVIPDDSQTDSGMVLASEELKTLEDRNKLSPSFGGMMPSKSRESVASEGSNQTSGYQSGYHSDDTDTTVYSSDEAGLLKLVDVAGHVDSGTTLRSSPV
Procedure: as §1, with “biotinylated” for “biotinylated histone-H1”, “0.8” for “0.2”
The soluble rat tyrosine kinase containing an N-terminal 6×HIS tag was diluted in 50 mM Tris.HCl pH=8.0, 0.1% BSA at a concentration of 5 ng per μL and 30 μL (150 ng enzyme per test well) was added to each well to initiate the reaction. The reaction was incubated for one hour at 30° C. At the end of the one hour incubation, the reaction was terminated by aspirating the reaction mixture from the plate and washing the wells twice with PBS containing 100 mM EDTA. The PLC1 biotinylated peptide substrate became immobilized on the Flashplate™ and the incorporation of ^33P-γ-ATP was measured by reading the plate on a scintillation counter. Inhibition of the enzymatic activity of the VEGF-R was measured by observing a reduced amount of ^33P-γ-ATP incorporated into the immobilized peptide.
The VEGF-R kinase assay was carried out using the CDK kinase assay procedure except that the enzyme was replaced with the VEGF-R2 fusion protein containing a polyhistidine tag at the N-terminus followed by amino acids 786-1343 of the rat VEGF-R2 kinase domain (GenBank Accession #U93306).
as §3

[3] = target: T2, CDK2:Cyclin A (Homo sapiens, UniProt P24941); assay: CDK2 Screening Assay; settings: 10 μM ATP, biotinylated histone-H1 peptide substrate, 33P-γ-ATP FlashPlate; read-out: Kinase IC50 CDK2
T2 construct: purchased Upstate Biotech, Lake Placid, N.Y
Procedure: as §1
as §2, with “CDK2:Cyclin A” for “CDK1:Cyclin-B”, “CDK2” for “CDK1”
The CDK2 kinase used was complexed with cyclin A and is commercially available (Upstate Biotech, Lake Placid, N.Y.).
as §3

T1 sequence (P06493 whole entry): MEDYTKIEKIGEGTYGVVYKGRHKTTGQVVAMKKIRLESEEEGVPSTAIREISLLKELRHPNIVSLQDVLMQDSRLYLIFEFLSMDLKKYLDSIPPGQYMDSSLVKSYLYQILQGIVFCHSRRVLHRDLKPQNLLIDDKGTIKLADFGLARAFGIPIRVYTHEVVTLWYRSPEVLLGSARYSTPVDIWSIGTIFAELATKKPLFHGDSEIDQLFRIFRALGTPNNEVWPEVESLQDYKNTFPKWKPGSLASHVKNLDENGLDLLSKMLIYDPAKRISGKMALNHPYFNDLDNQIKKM
T1 sequence (P14635 whole entry partner): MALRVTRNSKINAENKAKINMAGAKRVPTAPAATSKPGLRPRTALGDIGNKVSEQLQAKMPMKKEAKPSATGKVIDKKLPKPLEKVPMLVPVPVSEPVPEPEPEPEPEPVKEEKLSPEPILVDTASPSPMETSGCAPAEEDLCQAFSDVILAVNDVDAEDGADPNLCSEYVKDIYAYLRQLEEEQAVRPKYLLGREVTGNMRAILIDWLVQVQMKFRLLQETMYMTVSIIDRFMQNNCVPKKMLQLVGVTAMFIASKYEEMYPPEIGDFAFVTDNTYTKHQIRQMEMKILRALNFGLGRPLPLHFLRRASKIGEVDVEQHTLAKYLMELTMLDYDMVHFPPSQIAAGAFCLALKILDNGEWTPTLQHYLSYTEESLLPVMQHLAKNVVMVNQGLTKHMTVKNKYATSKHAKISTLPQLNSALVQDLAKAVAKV

SMILES	IC50 [1] [µM]	IC50 [2] [µM]	IC50 [3] [µM]
COc1cccc(OC)c1C(=O)Nc1cccc2sc(Nc3ccccc3)nc12 [Cpd 46, 2,6-dimethoxy-N-(2-phenylamino-benzothiazol-4-yl)-benzamide]	> 100	> 100	16.1
O=C(Nc1cccc2sc(Nc3ccccc3)nc12)c1c(F)cc(F)cc1F [Cpd 45, 2,4,6-trifluoro-N-(2-phenylamino-benzothiazol-4-yl)-benzamide]	> 10	> 100	1.66
Cc1ccc(F)c(C(=O)Nc2cccc3sc(Nc4ccc(S(N)(=O)=O)cc4)nc23)c1F [Cpd 12, 2,6-difluoro-3-methyl-N-[2-(4-sulfamoyl-phenylamino)-benzothiazol-4-yl]-benzamide]	> 100	> 100	> 100
O=C(Nc1cccc2sc(Nc3ccccc3)nc12)c1cc2c(Cl)cc(Cl)cc2[nH]1 [Cpd 59, 4,6-dichloro-1H-indole-2-carboxylic acid (2-phenylamino-benzothiazol-4-yl)-amide]	> 100	> 100	> 100
O=C(Cc1cc(F)cc(F)c1)Nc1cccc2sc(Nc3ccccc3)nc12 [Cpd 23, 2-(3,5-difluoro-phenyl)-N-(2-phenylamino-benzothiazol-4-yl)-acetamide]	> 10	> 100	2.12
O=S(=O)(Nc1cccc2sc(Nc3ccccc3)nc12)c1ccccc1 [Cpd 30, N-(2-phenylamino-benzothiazol-4-yl)-benzenesulfonamide]	11.3	> 100	1.94
O=C(Nc1cccc2sc(Nc3ccccc3)nc12)Oc1ccccc1 [Cpd 53, (2-phenylamino-benzothiazol-4-yl)-carbamic acid phenyl ester]	> 100	> 100	> 100
NS(=O)(=O)c1ccc(C(=O)Nc2cccc3sc(Nc4ccccc4)nc23)cc1 [Cpd 17, N-(2-phenylamino-benzothiazol-4-yl)-4-sulfamoyl-benzamide]	> 100	> 100	3.05
N#Cc1cccc(C(=O)Nc2cccc3sc(Nc4ccccc4)nc23)c1 [Cpd 38, 3-cyano-N-(2-phenylamino-benzothiazol-4-yl)-benzamide]	> 100	> 100	11
O=C(Nc1cccc2sc(Nc3ccccc3)nc12)c1cc2ccccc2s1 [Cpd 50, benzo[b]thiophene-2-carboxylic acid (2-phenylamino-benzothiazol-4-yl)-amide]	> 100	> 100	> 100
O=C(Nc1cccc2sc(Nc3ccccc3)nc12)c1ccc2ccccc2c1 [Cpd 40, naphthalene-2-carboxylic acid (2-phenylamino-benzothiazol-4-yl)-amide]	> 100	> 100	> 100

Second part, the molecule after the results:

IC50 [1] [µM]	IC50 [2] [µM]	IC50 [3] [µM]	SMILES
7.15	> 100	1.03	Cc1cc(C)cc(C(=O)Nc2cccc3sc(Nc4ccccc4)nc23)c1 [Cpd 39, 3,5-dimethyl-N-(2-phenylamino-benzothiazol-4-yl)-benzamide]
> 100	> 100	3.67	CCC(=O)Nc1cccc2sc(Nc3ccccc3)nc12 [Cpd 26, N-(2-phenylamino-benzothiazol-4-yl)-propionamide]
53.3	> 100	8.28	O=C(Nc1cccc2sc(Nc3ccccc3)nc12)c1cncc(Br)c1 [Cpd 24, 5-bromo-N-(2-phenylamino-benzothiazol-4-yl)-nicotinamide]
> 100	> 100	10.8	O=C(Nc1cccc2sc(Nc3ccccc3)nc12)c1cccc([N+](=O)[O-])c1 [Cpd 19, 3-nitro-N-(2-phenylamino-benzothiazol-4-yl)-benzamide]
> 100	> 100	> 10	Cc1nnsc1C(=O)Nc1cccc2sc(Nc3ccccc3)nc12 [Cpd 56, 4-methyl-[1,2,3]thiadiazole-5-carboxylic acid (2-phenylamino-benzothiazol-4-yl)-amide]
> 100	> 100	> 100	O=C(Nc1cccc2sc(Nc3ccccc3)nc12)c1cccc(Br)c1 [Cpd 33, 3-bromo-N-(2-phenylamino-benzothiazol-4-yl)-benzamide]
3.64	5.96	0.65	O=C(Nc1cccc2sc(Nc3ccccc3)nc12)c1c(F)cccc1F [Cpd 10, 2,6-difluoro-N-(2-phenylamino-benzothiazol-4-yl)-benzamide]
> 100	> 100	1.37	O=C(Nc1cccc2sc(Nc3ccccc3)nc12)C1CCCC1 [Cpd 52, cyclopentanecarboxylic acid (2-phenylamino-benzothiazol-4-yl)-amide]
> 10	> 100	3.34	Cc1cc(C(=O)Nc2cccc3sc(Nc4ccccc4)nc23)n(C)n1 [Cpd 13, 2,5-dimethyl-2H-pyrazole-3-carboxylic acid (2-phenylamino-benzothiazol-4-yl)-amide]
36.4	> 100	6.22	CC(=O)N1CCC(C(=O)Nc2cccc3sc(Nc4ccccc4)nc23)CC1 [Cpd 25, 1-acetyl-piperidine-4-carboxylic acid (2-phenylamino-benzothiazol-4-yl)-amide]
> 100	> 100	> 100	CC(C)(C)NC(=O)Nc1cccc2sc(Nc3ccccc3)nc12 [Cpd 60, 1-tert-butyl-3-(2-phenylamino-benzothiazol-4-yl)-urea]
> 100	> 100	5.28	Nc1cccc(C(=O)Nc2cccc3sc(Nc4ccccc4)nc23)c1 [Cpd 20, 3-amino-N-(2-phenylamino-benzothiazol-4-yl)-benzamide]
> 100	> 100	> 100	O=C(Nc1cccc2sc(Nc3ccccc3)nc12)c1cccs1 [Cpd 35, thiophene-2-carboxylic acid (2-phenylamino-benzothiazol-4-yl)-amide]
> 100	> 100	> 10	CC(=O)Nc1cccc2sc(Nc3ccccc3)nc12 [Cpd 16, N-(2-phenylamino-benzothiazol-4-yl)-acetamide]
> 100	> 100	17.4	O=C(Nc1ccccc1F)Nc1cccc2sc(Nc3ccccc3)nc12 [Cpd 7, 1-(2-fluoro-phenyl)-3-(2-phenylamino-benzothiazol-4-yl)-urea]
> 100	> 100	12	O=C(Nc1cccc2sc(Nc3ccccc3)nc12)c1ccccn1 [Cpd 27, pyridine-2-carboxylic acid (2-phenylamino-benzothiazol-4-yl)-amide]
